# Results reported in patent publication US6716829B2, “Aldosterone antagonist and cyclooxygenase-2 inhibitor combination therapy to prevent or treat inflammation-related cardiovascular disorders” (Pharmacia Corporation, priority 2000, dated 2004).
# Values joined by “and” are separate entries in the source; they are usually repeats but may differ in a detail not shown here. Equal values may be shown once. “Also recorded” adds a separate entry of the source.
# What was measured:
# [1] = Assay C: body weight, left and right ventricle weight, tibia length (myocardial hypertrophy); assay type: in vivo, Male Sprague-Dawley rats
# Method: The procedure of Assay B was expanded upon in a further study. […] Myocardial tissue from animals in each treatment group was examined after 7, 14, or 30 days of treatment.
# Male Sprague-Dawley rats, weighing 230 to 250 g, (Harlan Sprague-Dawley Industries, Indianapolis, IN) were housed in a room 12-hours light/12-hours dark daily cycle at an ambient temperature of 22±1° C. (n=96). Animals were allowed one week to adjust after arrival and had free access to TEKLAD 22/5 rodent diet (Harlan TEKLAD, Madison, Wis.) and tap water until the initiation of the experiment.
# Potassium chloride supplementation was added to the saline solution in order to prevent the potential hypokalemia associated with aldosterone excess.
# At the time of the surgery, an Alzet 2002 osmotic minipump (Alza Corp., Palo Alto, Calif.) containing either vehicle (9% ethanol/87% propylene glycol/4% dH2O) or 1.0 mg/mL d-aldosterone (Sigma Chemical, St. Louis, Mo.) was inserted subcutaneously at the nape of the neck. Aldosterone was administered at a dose of 0.75 µg/hour. […] Animals were sacrificed from each group (n=8-13) after 7, 14, or 30 days of treatment.
# Animals to be sacrificed after 7 or 14 days of treatment were uninephrectomized and implanted with an Alzet minipump. Animals treated for 30 days were uninephrectomized, fitted for Alzet minipumps, and implanted with radio telemetry units (model #TA11PA-C40, Data Sciences Inc., St. Paul, Minn.) according to the following procedure. Animals were anesthetized with 5% isoflurane (SOLVAY Animal Health Inc., Mendota Heights, Minn.), which was delivered in O2 using a VMS anesthesia instrument (Matrix Medical, Inc., Orchard Park, N.Y.). Anesthesia was maintained with 1-2% isoflurane throughout the surgical procedure. The surgery site was clipped, scrubbed with nolvasan, and sprayed with betadine. A rostral-caudal incision was made through the skin from the base of the rib cage to the pubic region using a #11 scalpel blade. A second incision was made through the muscles of the abdominal wall to expose the peritoneal cavity. The […], renal artery and vein of the left kidney were isolated, tied off with 4-0 silk, and the kidney excised and discarded. Organs were carefully displaced with tissue retractors in order to expose the abdominal aorta. A 1.5 cm segment just rostral to the bifurcation of the abdominal aorta into the iliac arteries was cleared of excessive connective tissue and 4-0 silk was used to make an anchor adjacent to the aorta. A microvascular clip was then placed at both ends of the cleaned region to stop excessive blood flow. Using a bent, 21 gauge needle, the abdominal aorta was penetrated. The cannula of the radio telemetry unit was inserted and stabilized in the aorta using the 4-0 silk anchor. Organs were repositioned and the telemetry unit was placed over the organs. Using a non-interrupted suture pattern with 4-0 silk, the abdominal wall was closed, and the skin was subsequently closed using a 4-0 silk in an interrupted suture pattern. Animals were injected around the sutures with 100 μL of the anesthetic Marcaine HCl (Sanofi Winthrop Pharmaceuticals, New York, N.Y.) and given an injection (i.m.) of the antibiotic Mandol (Eli Lilly & Co., Indianapolis, Ind.). Post-operative care included monitoring the animals on a heating pad during recovery from anesthesia until sternal recumbency was reestablished. Animals were monitored daily for signs of distress and infection at the surgical site. Animals displaying continued discomfort after surgery were treated with 0.1-0.5 mg/kg, s.c. Buphrenorphine (Rickett & Colman Pharmaceuticals, Inc. Richmond, Va.). Animals were then placed on tap water and TEKLAD 22/5 rodent diet (Harlan TEKLAD, Madison, Wis.).
# [2] = system: myocardial injury; experiment: Assay C: histopathologic analysis, semi-quantitative myocardial injury score 0 to 4; assay type: in vivo, Male Sprague-Dawley rats; conditions: for Myocardia 1 Necrosis (0-4): eplerenone dose 100 mg/kg/day
# Method: The procedure of Assay B was expanded upon in a further study. […] Myocardial tissue from animals in each treatment group was examined after 7, 14, or 30 days of treatment. […] Lesions were preceded by the expression and progressive upregulation of proinflammatory molecules. […] Prior to surgery the animals were individually weighed and placed in one of the following groups: […] Potassium chloride supplementation was added to the saline solution in order to prevent the potential hypokalemia associated with aldosterone excess. […] Louis, Mo.) was inserted subcutaneously at the nape of the neck. Aldosterone was administered at a dose of 0.75 µg/hour. […] Animals were sacrificed from each group (n=8-13) after 7, 14, or 30 days of treatment. Following exsanguination, hearts and kidneys were isolated, removed, rinsed in cold phosphate-buffered saline, and blotted dry. […] The equatorial regions of the heart were routinely processed into paraffin with an automated tissue processor (Hypercenter XP, Shandon/Lipshaw Inc., Pittsburgh, Pa.) and embedded into fresh paraffin apical side down (Shandon Embedding Center, Shandon/Lipshaw Inc.). Five and 10 µm sections were cut from each block of tissue using a Leica RM2035 rotary microtome (Leica Inc., Houston, Tex.) and mounted on Superfrost/Plus microscope slides (Fisher Scientific, Pittsburgh, Pa.). Ten […]m sections were stained with the collagen specific stain, Picrosirius Red F3BA (Saturated Picric Acid (Sigma Chemical, St. […] Waterbury, Conn.) (6). Mounted tissues were hydrated with water. […] Slides were coverslipped with #1 cover glass using Permount Histological Mounting Media (Fisher Scientific). Two slides mounted with 5 µm sections were cut for each animal. One slide was processed for H&E staining and one for Periodic Acid Schiff (PAS) staining. The H&E and PAS were used for pathological scoring of the hearts. Semi-quantification of myocardial injury was performed as described previously with minor modifications (7). Briefly, a scale from 0 to 4 was used to score the level of myocardial injury. A score of 0 represented no damage. […] Myocardial necrosis was defined as the presence of necrotic changes in cardiomyocytes such as nuclear pyknosis or karyolysis, non-contracting marginal wavy fibers and hypereosinophilia of the cytoplasm, or clear evidence of destruction of the cardiomyocyte membrane.
# [3] = 14-day protocol, individual rats and group Mean, listed as Aldosterone + salt
# [4] = 14-day protocol, individual rats and group Mean, listed as Aldosterone + salt, mean
# [5] = 30-day protocol, individual rats and group Mean, listed as Aldosterone + salt
# [6] = 30-day protocol, individual rats and group Mean, listed as Aldosterone + salt, group mean
# [7] = mean ± SEM after 7 days of treatment, aldosterone + salt, eplerenone 100 mg/kg/day
# [8] = mean ± SEM after 14 days of treatment, aldosterone + salt, eplerenone 100 mg/kg/day
# [9] = mean ± SEM after 30 days of treatment, eplerenone dose 100 mg/kg/day
smiles,measurement,setting,value
C[C@]12CCC(=O)C=C1CC[C@@H]1[C@@H]2[C@@H](O)C[C@]2(C=O)[C@@H](C(=O)CO)CC[C@@H]12 [Aldosterone],Left Ventricle Weight,[1]; [3],846 mg and 784 mg and 912 mg and 720 mg and 923 mg and 854 mg and 894 mg and 859 mg and 750 mg and 818 mg and 746 mg and 700 mg
same,Left Ventricle Weight/ Tibia Length,[1]; [3],223 mg/cm and 206 mg/cm and 234 mg/cm and 189 mg/cm and 237 mg/cm and 225 mg/cm and 229 mg/cm and 220 mg/cm and 197 mg/cm and 215 mg/cm and 202 mg/cm and 194 mg/cm
same,Right Ventricle Weight,[1]; [3],194 mg and 189 mg and 208 mg and 174 mg and 217 mg and 186 mg and 216 mg and 171 mg and 153 mg and 195 mg and 172 mg
same,Right Ventricle Weight/ Tibia Length,[1]; [3],51 mg/cm and 50 mg/cm and 53 mg/cm (3×) and 56 mg/cm and 49 mg/cm and 55 mg/cm and 44 mg/cm and 40 mg/cm and 48 mg/cm
same,Left Ventricle Weight,[1]; [4],817 mg
same,Left Ventricle Weight/ Tibia Length,[1]; [4],214 mg/cm
same,Right Ventricle Weight,[1]; [4],189 mg
same,Right Ventricle Weight/ Tibia Length,[1]; [4],50 mg/cm
same,Left Ventricle Weight,[1]; [5],934 mg and 726 mg and 963 mg and 942 mg and 1030 mg and 837 mg and 962 mg and 873 mg and 919 mg
same,Left Ventricle Weight/ Tibia Length,[1]; [5],234 mg/cm and 191 mg/cm and 247 mg/cm (2×) and 242 mg/cm (2×) and 264 mg/cm and 215 mg/cm and 218 mg/cm
same,Right Ventricle Weight,[1]; [5],196 mg and 148 mg and 215 mg and 176 mg and 224 mg and 173 mg and 220 mg and 187 mg and 185 mg
same,Right Ventricle Weight/ Tibia Length,[1]; [5],49 mg/cm (2×) and 39 mg/cm and 55 mg/cm and 45 mg/cm and 57 mg/cm and 44 mg/cm and 56 mg/cm and 47 mg/cm
same,Left Ventricle Weight,[1]; [6],910 mg
same,Left Ventricle Weight/ Tibia Length,[1]; [6],233 mg/cm
same,Right Ventricle Weight,[1]; [6],192 mg
same,Right Ventricle Weight/ Tibia Length,[1]; [6],49 mg/cm
same,Body weight,"[1]; aldosterone + salt at days 7, 14 and 30 vs vehicle + salt, eplerenone effect at day 30",significantly lower
same,"Ventricular hypertrophy (absolute ventricular weights, ventricular weight to tibia length ratios)","[1]; aldosterone + salt, 7 to 30 days, eplerenone 100 mg/kg/day",Significant left and right ventricular hypertrophy
same,Final Body Weight,[1]; [7],277 ± 5 g
same,Left Ventricle Weight,[1]; [7],736 ± 25 mg
same,Left Ventricle Weight/ Tibia Length,[1]; [7],194 ± 6 mg/cm
same,Right Ventricle Weight,[1]; [7],183 ± 7 mg
same,Right Ventricle Weight/ Tibia Length,[1]; [7],48 ± 2 mg/cm
same,Final Body Weight,[1]; [8],270 ± 11 g
same,Left Ventricle Weight,[1]; [8],817 ± 22 mg
same,Left Ventricle Weight/ Tibia Length,[1]; [8],214 ± 5 mg/cm
same,Right Ventricle Weight,[1]; [8],189 ± 5 mg
same,Right Ventricle Weight/ Tibia Length,[1]; [8],50 ± 1 mg/cm
same,Final Body Weight,[1]; [9],272 ± 10 g
same,Left Ventricle Weight,[1]; [9],910 ± 29 mg
same,Left Ventricle Weight/ Tibia Length,[1]; [9],233 ± 7 mg/cm
same,Right Ventricle Weight,[1]; [9],192 ± 8 mg
same,Right Ventricle Weight/ Tibia Length,[1]; [9],49 ± 2 mg/cm
same,Myocardial Necrosis (0-4),"[2]; 7-day protocol, score 0-4, individual rats and group Mean",0.0
same,Myocardial injury / vascular inflammatory damage (histopathology),"[2]; aldosterone + salt, 7, 14, 30 days, eplerenone 100 mg/kg/day",focal arterial and myocardial alterations were observed starting at 14 days; also recorded: induced vascular inflammation and cardiac tissue damage
same,Myocardial Necrosis (0-4),"[2]; group mean, data used for Table 15 (14 days of treatment)",0.8
same,Myocardial Necrosis (0-4),"[2]; group mean, data used for Table 16 (30 days of treatment)",2.0
same,Myocardial Necrosis (0-4),"[2]; individual rats, data used for Table 15 (14 days of treatment), incl. rat marked * excluded from statistics, listed as Aldosterone + salt",0.0 (7×) and 1.0 (3×) and 3.0 (3×)
same,Myocardial Necrosis (0-4),"[2]; individual rats, data used for Table 16 (30 days of treatment), incl. rat marked * excluded from statistics, listed as Aldosterone + salt",1.5 and 2.5 and 3.0 (2×) and 2.0 (2×) and 0.5 and 0.3 and 3.5
same,Myocardia 1 Necrosis (0-4),[2]; mean ± SEM after 7 days of treatment,0.0 ± 0.0
same,Myocardia 1 Necrosis (0-4),[2]; mean ± SEM after 14 days of treatment,0.8 ± 0.3
same,Myocardia 1 Necrosis (0-4),[2]; mean ± SEM after 30 days of treatment,2.0 ± 0.4
